# Test results reported in patent EP4603105A1, “PHARMACEUTICAL COMPOSITION CONTAINING CYCLIC COMPOUND HAVING SELECTIVE KRAS INHIBITORY EFFECT AGAINST HRAS AND NRAS” (CHUGAI SEIYAKU KABUSHIKI KAISHA, priority 2022, dated 2024).
# *1 amine or outer side, *2 acyl side, *3 side chain or, on linkers, in order; H or OH if unused. Where a SMILES comes first, the peptide text is derived from it. Bridges are numbered along the chain shown (N, C = ends). [ ]: non-standard residue; d: D form. The star is where a group is joined. hPhe(3-Cl-4-CF3) = N[C@@H](CCc1ccc(C(F)(F)F)c(Cl)c1)C(=O)O; NPrPhe(4-CF3) = CCCN[C@@H](Cc1ccc(C(F)(F)F)cc1)C(=O)O; NPrAsp = CCCN([C@@H](CC(=O)[*:3])C(=O)[*:2])[*:1]; NMeGly(cPent) = CN[C@H](C(=O)O)C1CCCC1; Pro(4,4-F2) = O=C(O)[C@@H]1CC(F)(F)CN1; NMeD = CN[C@@H](CC(=O)O)C(=O)O; NMeL = CN[C@@H](CC(C)C)C(=O)O; NMeNva = CCC[C@H](NC)C(=O)O; Morpholide = C1CN(*)CCO1; NMeA = CN[C@@H](C)C(=O)O; Ac5c = NC1(C(=O)O)CCCC1; Aze = O=C(O)[C@@H]1CCN1; Ac4c = NC1(C(=O)O)CCC1; Sar = CNCC(=O)O
# Key:
# HRAS wild-type protein = HRAS wild-type protein (Homo sapiens, UniProt P01112); test: Binding to HRAS by surface plasmon resonance (SPR), KD and KD ratio to KRAS
# Sequence of HRAS wild-type protein (P01112 whole entry): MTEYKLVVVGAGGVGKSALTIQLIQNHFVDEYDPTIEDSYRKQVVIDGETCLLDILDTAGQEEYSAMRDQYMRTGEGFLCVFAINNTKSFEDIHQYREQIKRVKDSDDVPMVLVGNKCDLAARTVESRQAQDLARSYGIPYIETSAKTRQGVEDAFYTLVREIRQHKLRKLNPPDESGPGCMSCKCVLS
# In short: (§1)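 Each cycle, GDP-bound biotin-Avi RAS was captured (~100–300 RU), compound concentrations were injected low to high for 75 s each at 100 µL/min, then the chip was regenerated. Buffer: HBS pH 7.4, 10 mM MgCl2, 10 µM GDP, 1 mM DTT, 4% DMSO; 30°C. KD from a 1:1 binding model.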
# [1] = molecular target: GDP-bound NRAS wild-type protein (Homo sapiens, UniProt P01111); test: Binding to NRAS by surface plasmon resonance (SPR), KD and KD ratio to KRAS
# Sequence of GDP-bound NRAS wild-type protein (P01111 whole entry): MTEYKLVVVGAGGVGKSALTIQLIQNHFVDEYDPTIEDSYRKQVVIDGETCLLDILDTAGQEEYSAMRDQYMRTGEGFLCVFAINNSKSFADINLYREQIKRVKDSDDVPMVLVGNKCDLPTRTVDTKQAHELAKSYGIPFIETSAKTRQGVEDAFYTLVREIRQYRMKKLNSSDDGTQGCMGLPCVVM
# In short: as §1
# [2] = tested on: human lung cancer strain NCI-H441; assay type: cell-based
# In short: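 Signal came from […] measured per well once the reagent was added. Beforehand, cells were cultured at 37°C and 5% carbon dioxide on a compound series serially diluted in dimethyl sulfoxide.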
# [3] = ratio of KD for HRAS wild-type protein to KD for KRAS
# [4] = ratio of KD for GDP-bound NRAS wild-type protein to KD for KRAS
# [5] = ratio of the KD value with respect to HRAS wild-type protein to the KD value with respect to KRAS
# [6] = ratio of the KD value with respect to GDP-bound NRAS wild-type protein to the KD value with respect to KRAS
# [7] = ratio of KD value for HRAS wild-type protein to KD value for KRAS (SPR)
# [8] = ratio of KD value for GDP-bound NRAS wild-type protein to KD value for KRAS (SPR)
SMILES,IC50 [2],HRAS /KRAS (HRAS wild-type protein; [3]),"NRAS /KRAS [1, 4]",other results
CCO[C@@H]1C[C@H]2C(=O)NC3(CCC3)C(=O)N(C)[C@@H](C3CCCC3)C(=O)N(C)[C@H](C(=O)N(C)CCOC)CC(=O)N(C)[C@@H](CC(C)C)C(=O)N[C@@H]([C@@H](C)CC)C(=O)N(C)CC(=O)N(C)[C@H]3C/C=C\CCN(C3=O)[C@@H](Cc3ccc(C(F)(F)F)cc3)C(=O)N(C)CC(=O)N[C@@H](CCc3cc(F)c(C(F)(F)F)c(F)c3)C(=O)N2C1 [PP1317],7.6 nM,,,HRAS /KRAS (HRAS wild-type protein; ratio of KD with respect to HRAS wild-type protein to KD with respect to KRAS): B (a compound having 3 or more and less than 10 is denoted as B); NRAS /KRAS ([1]; ratio of KD with respect to GDP-bound NRAS wild-type protein to KD with respect to KRAS): A (a compound having 10 or more and less than 20 is denoted as A)
CCO[C@@H]1C[C@H]2C(=O)NC3(CCC3)C(=O)N(C)[C@@H](C3CCCC3)C(=O)N(CCC3CCC3)[C@H](C(=O)N(C)C)CC(=O)N(C)[C@@H](CC)C(=O)N[C@@H]([C@@H](C)CC)C(=O)N(C)CC(=O)N(C)[C@H]3CCCCN(C3=O)[C@@H](Cc3ccc(C(F)(F)F)cc3)C(=O)N(C)CC(=O)N[C@@H](CCc3cc(F)c(C(F)(F)F)c(F)c3)C(=O)N2C1 [PP0645],12 nM,,,"HRAS /KRAS (HRAS wild-type protein; [5]): B (a compound having 3 or more and less than 10 is denoted as B); NRAS /KRAS [1, 6]: B (a compound having 3 or more and less than 10 is denoted as B)"
CCCO[C@@H]1C[C@H]2C(=O)NC3(CC(C)(C)C3)C(=O)N(C)[C@@H](C(CC)CC)C(=O)N(C)[C@H](C(=O)N(C)C)CC(=O)N(C)[C@H]3CCCCc4ccc(cc4)C[C@@H](C(=O)N(C)CC(=O)N[C@@H](CCc4ccc(C(F)(F)F)c(OC)c4)C(=O)N2C1)N1CC/C=C\C[C@@H](C1=O)N(C)C(=O)CN(C)C(=O)[C@H]([C@@H](C)CC)NC3=O [PP3038],3.1 nM,A (a compound having 10 or more and less than 20 is denoted as A),A (a compound having 10 or more and less than 20 is denoted as A),
CCO[C@@H]1C[C@H]2C(=O)NC3(CCC3)C(=O)N(C)[C@@H](C3CCCC3)C(=O)N(C)[C@H](C(=O)N(C)C)CC(=O)N(C)[C@@H](CC(C)C)C(=O)N[C@@H]([C@@H](C)CC)C(=O)N3CC[C@H]3C(=O)N(C)[C@H]3CC(C)=C(C)CN(C3=O)[C@@H](Cc3ccc(C(F)(F)F)cc3)C(=O)N(C)CC(=O)N[C@@H](CCc3cc(F)c(C(F)(F)F)c(F)c3)C(=O)N2C1 [PP1047],117 nM,C (A compound having a KD ratio of 0.1 or more and less than 3 is denoted as C),C (A compound having a KD ratio of 0.1 or more and less than 3 is denoted as C),
CC[C@H](C)[C@@H]1NC(=O)[C@H](CC2CC2)N(C)C(=O)C[C@@H](C(=O)N(C)C)N(C)C(=O)[C@H](C2CCCC2)N(C)C(=O)C2(CCC2)NC(=O)[C@@H]2C[C@@H](C(F)(F)F)CN2C(=O)[C@H](CCc2cc(F)c(C(F)(F)F)c(F)c2)NC(=O)CN(C)C(=O)[C@H](Cc2ccc(C(F)(F)F)cc2)N2CC/C=C\C[C@@H](C2=O)N(C)C(=O)CN(C)C1=O [PP1498],10.3 nM,,,"HRAS /KRAS (HRAS wild-type protein; [7]): A (a compound having 10 or more and less than 20 is denoted as A); NRAS /KRAS [1, 8]: A (a compound having 10 or more and less than 20 is denoted as A)"
CC[C@H](C)[C@@H]1NC(=O)[C@H](CC2CC2)N(C)C(=O)C[C@@H](C(=O)N2CCCC2)N(C)C(=O)[C@H](C2CCCC2)N(C)C(=O)C2(CCCC2)NC(=O)[C@@H]2C[C@@H](C(F)(F)F)CN2C(=O)[C@H](CCc2cc(F)c(C(F)(F)F)c(F)c2)NC(=O)CN(C)C(=O)[C@H](Cc2ccc(C(F)(F)F)cc2)N2CC/C=C\C[C@@H](C2=O)N(C)C(=O)CN(C)C1=O [PP1506],73.4 nM,,,"HRAS /KRAS (HRAS wild-type protein; [7]): A (a compound having 10 or more and less than 20 is denoted as A); NRAS /KRAS [1, 8]: AA (a compound having 20 or more is denoted as AA)"
CCCN(C)C(=O)[C@@H]1CC(=O)N(C)[C@@H](COCC)C(=O)N[C@@H]([C@@H](C)CC)C(=O)N(C)CC(=O)N(C)[C@H]2C/C=C\CCN(C2=O)[C@@H](Cc2ccc(C(F)(F)F)cc2)C(=O)N(C)CC(=O)N[C@@H](CCc2ccc(C(F)(F)F)c(OC)c2)C(=O)N2C[C@H](OCC)C[C@H]2C(=O)NC2(CCC2)C(=O)N(C)[C@@H](C2CCCC2)C(=O)N1C [PP2015],5.6 nM,,,"HRAS /KRAS (HRAS wild-type protein; [5]): B (a compound having 3 or more and less than 10 is denoted as B); NRAS /KRAS [1, 6]: A (a compound having 10 or more and less than 20 is denoted as A)"
CCO[C@@H]1C[C@H]2C(=O)NC3(CCC3)C(=O)N(C)[C@@H](C3CCCC3)C(=O)N(C)[C@H](C(=O)N(C)C)CC(=O)N(C)[C@@H](CC3CCCC3)C(=O)N[C@@H]([C@@H](C)CC)C(=O)N(C)CC(=O)N(C)[C@H]3C/C=C\CCN(C3=O)[C@@H](Cc3ccc(C)cc3)C(=O)N(C)CC(=O)N[C@@H](CCc3ccc(C4CC4)c(F)c3)C(=O)N2C1 [PP2683],63.3 nM,A (a compound having 10 or more and less than 20 is denoted as A),A (a compound having 10 or more and less than 20 is denoted as A),
CCC[C@H]1C(=O)N[C@@H]([C@@H](C)CC)C(=O)N(C)CC(=O)N(C)[C@H]2C/C=C\CCN(C2=O)[C@@H](Cc2ccc(C(F)(F)F)cc2)C(=O)N(C)CC(=O)N[C@@H](CCc2cc(Cl)c3sccc3c2)C(=O)N2C[C@H](OCC)C[C@H]2C(=O)NC2(CC(C)(C)C2)C(=O)N(C)[C@@H](C(CC)CC)C(=O)N(C)[C@H](C(=O)N(C)C)CC(=O)N1C [PP2888],14.2 nM,A (a compound having 10 or more and less than 20 is denoted as A),AA (a compound having 20 or more is denoted as AA),
CCC[C@H]1C(=O)N[C@@H]([C@@H](C)CC)C(=O)N(C)CC(=O)N(C)CC(=O)N(CCC)[C@@H](Cc2ccc(C(F)(F)F)cc2)C(=O)N(C)CC(=O)N[C@@H](CCc2ccc(C(F)(F)F)c(Cl)c2)C(=O)N2CCC[C@H]2C(=O)NC2(CCC2)C(=O)N(C)[C@@H](C2CCCC2)C(=O)N(CCC)[C@H](C(=O)N2CCOCC2)CC(=O)N1C [PP1954] ([NMeNva]I[Sar][Sar][NPrPhe(4-CF3)][Sar][hPhe(3-Cl-4-CF3)]P[Ac4c][NMeGly(cPent)][NPrAsp]-Morpholide; lactam N-11),8.1 nM,,,"HRAS /KRAS (HRAS wild-type protein; [5]): B (a compound having 3 or more and less than 10 is denoted as B); NRAS /KRAS [1, 6]: B (a compound having 3 or more and less than 10 is denoted as B)"

# Continued by falling IC50 [2], values first:
IC50 [2],SMILES,HRAS /KRAS (HRAS wild-type protein; [3]),"NRAS /KRAS [1, 4]",other results
10.7 nM,CC[C@H](C)[C@@H]1NC(=O)[C@H](CC)N(C)C(=O)C[C@@H](C(=O)N(C)C)N(C)C(=O)[C@H](C2CCCC2)N(C)C(=O)C2(CC(C)(C)C2)NC(=O)[C@@H]2C[C@H](C)CN2C(=O)[C@H](CCc2ccc(C(F)(F)F)c(OC)c2)NC(=O)CN(C)C(=O)[C@H](Cc2ccc(C)cc2)N2CC/C=C\C[C@@H](C2=O)N(C)C(=O)CN(C)C1=O [PP1836],,,"HRAS /KRAS (HRAS wild-type protein; [7]): B (a compound having 3 or more and less than 10 is denoted as B); NRAS /KRAS [1, 8]: A (a compound having 10 or more and less than 20 is denoted as A)"
5.3 nM,CCO[C@@H]1C[C@H]2C(=O)NC3(CC(C)(C)C3)C(=O)N(C)[C@@H](C3CCCC3)C(=O)N(C)[C@H](C(=O)N3CCCC3)CC(=O)N(C)[C@H]3CCCCCCc4ccc(cc4)C[C@@H](C(=O)N(C)CC(=O)N[C@@H](CCc4ccc(C(F)(F)F)c(OC)c4)C(=O)N2C1)N1CC/C=C\C[C@@H](C1=O)N(C)C(=O)CN(C)C(=O)[C@H]([C@@H](C)CC)NC3=O [PP3034],B (a compound having 3 or more and less than 10 is denoted as B),A (a compound having 10 or more and less than 20 is denoted as A),
2.7 nM,CCO[C@@H]1C[C@H]2C(=O)N(C)C3(CC(C)(C)C3)C(=O)N(C)[C@@H](C3CCCC3)C(=O)N(C)[C@H](C(=O)N(C)C)CC(=O)N(C)[C@H]3CCC/C=C/c4ccc(cc4)C[C@@H](C(=O)N(C)CC(=O)N[C@@H](CCc4cc(F)c(C(F)(F)F)c(F)c4)C(=O)N2C1)N1CC/C=C\C[C@@H](C1=O)N(C)C(=O)CN(C)C(=O)[C@H]([C@@H](C)CC)NC3=O [PP3060],B (a compound having 3 or more and less than 10 is denoted as B),B (a compound having 3 or more and less than 10 is denoted as B),
2.2 nM,CCCO[C@@H]1C[C@H]2C(=O)NC3(CC(C)(C)C3)C(=O)N(C)[C@@H](C3CCCC3)C(=O)N(C)[C@H](C(=O)N3CCCC3)CC(=O)N(C)[C@H]3CCCCc4ccc(cc4)C[C@@H](C(=O)N(C)CC(=O)N[C@@H](CCc4ccc(C(F)(F)F)c(OC)c4)C(=O)N2C1)N1CC/C=C\C[C@@H](C1=O)N(C)C(=O)CN(C)C(=O)[C@H]([C@@H](C)CC)NC3=O [PP3094],B (a compound having 3 or more and less than 10 is denoted as B),A (a compound having 10 or more and less than 20 is denoted as A),
1 nM,"CCCN1C(=O)[C@@H]2CCN2C(=O)[C@H](C)N(C)C(=O)[C@H]([C@@H](C)CC)NC(=O)[C@H](CC(C)C)N(C)C(=O)C[C@@H](C(=O)N(C)C)N(C)C(=O)[C@H](C2CCCC2)N(C)C(=O)C2(CCCC2)NC(=O)[C@@H]2CC(F)(F)CN2C(=O)[C@H](CCc2ccc(C(F)(F)F)c(Cl)c2)NC(=O)CN(C)C(=O)[C@@H]1Cc1ccc(C(F)(F)F)cc1 [PP0436] ([NMeL]I[NMeA][Aze][NPrPhe(4-CF3)][Sar][hPhe(3-Cl-4-CF3)][Pro(4,4-F2)][Ac5c][NMeGly(cPent)][NMeD]-NMe2; lactam N-11)",,,"HRAS /KRAS (HRAS wild-type protein; [5]): C (A compound having a KD ratio of 0.1 or more and less than 3 is denoted as C); NRAS /KRAS [1, 6]: C (A compound having a KD ratio of 0.1 or more and less than 3 is denoted as C)"
